Reference: ChEMBL document CHEMBL3352328, “Synthesis and biological evaluation of a new series of N-acyldiamines as potential antibacterial and antifungal agents” (2014)
Converted amounts (≈) assume the structure as drawn. The source made the active and inactive calls. The rule behind the calls is not given here.

Legend:
Candida albicans = test: Antifungal activity against Candida albicans ATCC 18804 by broth microdilution method; format: functional
Nakaseomyces glabratus = test: Antifungal activity against Candida glabrata ATCC 90030 by broth microdilution method; format: functional
Escherichia coli [1] = test: Antimicrobial activity against Escherichia coli ATCC 11229 by broth dilution method; format: functional
Staphylococcus aureus [2] = test: Bactericidal activity against methicillin-resistant Staphylococcus aureus clinical isolate 8 after 24 hrs; format: functional; conditions: isolate 8, 24 h
Staphylococcus aureus [3] = test: Bactericidal activity against methicillin-resistant Staphylococcus aureus clinical isolate 3 after 24 hrs; format: functional; conditions: isolate 3, 24 h
Staphylococcus aureus [4] = test: Bactericidal activity against methicillin-resistant Staphylococcus aureus clinical isolate 20 after 24 hrs; format: functional; conditions: isolate 20, 24 h
Staphylococcus aureus [5] = test: Antimicrobial activity against Staphylococcus aureus ATCC 29213 by broth dilution method; format: functional
Staphylococcus aureus [6] = test: Bactericidal activity against methicillin-resistant Staphylococcus aureus clinical isolate 7 after 24 hrs; format: functional; conditions: isolate 7, 24 h
Staphylococcus aureus [7] = test: Bactericidal activity against methicillin-resistant Staphylococcus aureus clinical isolate 4 after 24 hrs; format: functional; conditions: isolate 4, 24 h
Staphylococcus aureus [8] = test: Bactericidal activity against methicillin-resistant Staphylococcus aureus clinical isolate 9 after 24 hrs; format: functional; conditions: isolate 9, 24 h
[9] = system: Staphylococcus epidermidis; test: Bactericidal activity against Staphylococcus epidermidis ATCC 12228 after 24 hrs; format: functional; conditions: ATCC 12228, 24 h
Staphylococcus aureus [10] = test: Bactericidal activity against methicillin-resistant Staphylococcus aureus clinical isolate 2 after 24 hrs; format: functional; conditions: isolate 2, 24 h
Staphylococcus aureus [11] = test: Bactericidal activity against methicillin-resistant Staphylococcus aureus clinical isolate 11 after 24 hrs; format: functional; conditions: isolate 11, 24 h
Staphylococcus aureus [12] = test: Bactericidal activity against methicillin-resistant Staphylococcus aureus clinical isolate 13 after 24 hrs; format: functional; conditions: isolate 13, 24 h
[13] = system: Staphylococcus epidermidis; test: Antimicrobial activity against Staphylococcus epidermidis ATCC 12228 by broth dilution method; format: functional
Staphylococcus aureus [14] = test: Bactericidal activity against methicillin-resistant Staphylococcus aureus clinical isolate 14 after 24 hrs; format: functional; conditions: isolate 14, 24 h
Staphylococcus aureus [15] = test: Bactericidal activity against methicillin-resistant Staphylococcus aureus clinical isolate 6 after 24 hrs; format: functional; conditions: isolate 6, 24 h
Candida parapsilosis = test: Antifungal activity against Candida parapsilosis ATCC 22019 by broth microdilution method; format: functional; conditions: Lodderomyces parapsilosis
Staphylococcus aureus [16] = test: Bactericidal activity against methicillin-resistant Staphylococcus aureus clinical isolate 17 after 24 hrs; format: functional; conditions: isolate 17, 24 h
Staphylococcus aureus [17] = test: Bactericidal activity against methicillin-resistant Staphylococcus aureus clinical isolate 15 after 24 hrs; format: functional; conditions: isolate 15, 24 h
Staphylococcus aureus [18] = test: Bactericidal activity against methicillin-resistant Staphylococcus aureus clinical isolate 18 after 24 hrs; format: functional; conditions: isolate 18, 24 h
Escherichia coli [19] = test: Bactericidal activity against Escherichia coli ATCC 11229 after 24 hrs; format: functional; conditions: ATCC 11229, 24 h
Pseudomonas aeruginosa [20] = test: Bactericidal activity against Pseudomonas aeruginosa ATCC 27853 after 24 hrs; format: functional; conditions: ATCC 27853, 24 h
Staphylococcus aureus [21] = test: Bactericidal activity against methicillin-resistant Staphylococcus aureus clinical isolate 16 after 24 hrs; format: functional; conditions: isolate 16, 24 h
Staphylococcus aureus [22] = test: Bactericidal activity against methicillin-resistant Staphylococcus aureus clinical isolate 12 after 24 hrs; format: functional; conditions: isolate 12, 24 h
Staphylococcus aureus [23] = test: Bactericidal activity against methicillin-resistant Staphylococcus aureus clinical isolate 19 after 24 hrs; format: functional; conditions: isolate 19, 24 h
Staphylococcus aureus [24] = test: Bactericidal activity against methicillin-resistant Staphylococcus aureus clinical isolate 21 after 24 hrs; format: functional; conditions: isolate 21, 24 h
Staphylococcus aureus [25] = test: Bactericidal activity against methicillin-resistant Staphylococcus aureus clinical isolate after 24 hrs; format: functional
Staphylococcus aureus [26] = test: Bactericidal activity against Staphylococcus aureus ATCC 29213 after 24 hrs; format: functional; conditions: ATCC 29213, 24 h
Staphylococcus aureus [27] = test: Bactericidal activity against methicillin-resistant Staphylococcus aureus clinical isolate 1 after 24 hrs; format: functional; conditions: isolate 1, 24 h
Staphylococcus aureus [28] = test: Bactericidal activity against methicillin-resistant Staphylococcus aureus clinical isolate 10 after 24 hrs; format: functional; conditions: isolate 10, 24 h
Staphylococcus aureus [29] = test: Bactericidal activity against methicillin-resistant Staphylococcus aureus clinical isolate 5 after 24 hrs; format: functional; conditions: isolate 5, 24 h
Candida tropicalis = test: Antifungal activity against Candida tropicalis ATCC 750 by broth microdilution method; format: functional
Pseudomonas aeruginosa [30] = test: Antimicrobial activity against Pseudomonas aeruginosa ATCC 27853 by broth dilution method; format: functional
Pseudomonas aeruginosa [31] = test: Bacteriostatic activity against Pseudomonas aeruginosa ATCC 27853 after 24 hrs; format: functional, organism-based
[32] = system: Staphylococcus epidermidis; test: Bacteriostatic activity against Staphylococcus epidermidis ATCC 12228 after 24 hrs; format: functional, organism-based
Staphylococcus aureus [33] = test: Bacteriostatic activity against Staphylococcus aureus ATCC 29213 after 24 hrs; format: functional, organism-based
Escherichia coli [34] = test: Bacteriostatic activity against Escherichia coli ATCC 11229 after 24 hrs; format: functional, organism-based

## CCCCCCCCCCCC(=O)NCCN
Candida albicans
  MIC: 128 µg/mL (≈ 528 µM)
Nakaseomyces glabratus
  MIC: 16 µg/mL (≈ 66 µM)
Escherichia coli [1]
  MIC: 8 µg/mL (≈ 33 µM)
Staphylococcus aureus [2]
  MBC: 16 µg/mL (≈ 66 µM)
Staphylococcus aureus [3]
  MBC: 1020 µg/mL (≈ 4220 µM)
Staphylococcus aureus [4]
  MBC: 256 µg/mL (≈ 1060 µM)
Staphylococcus aureus [5]
  MIC: 16 µg/mL (≈ 66 µM)
Staphylococcus aureus [6]
  MBC: 32 µg/mL (≈ 132 µM)
Staphylococcus aureus [7]
  MBC: 256 µg/mL (≈ 1060 µM)
Staphylococcus aureus [8]
  MBC: 32 µg/mL (≈ 132 µM)
[9]
  MBC: 16 µg/mL (≈ 66 µM)
Staphylococcus aureus [10]
  MBC: 256 µg/mL (≈ 1060 µM)
Staphylococcus aureus [11]
  MBC: > 1020 µg/mL
Staphylococcus aureus [12]
  MBC: 32 µg/mL (≈ 132 µM)
[13]
  MIC: 16 µg/mL (≈ 66 µM)
Staphylococcus aureus [14]
  MBC: > 1020 µg/mL
Staphylococcus aureus [15]
  MBC: 32 µg/mL (≈ 132 µM)
Candida parapsilosis
  MIC: 16 µg/mL (≈ 66 µM)
Staphylococcus aureus [16]
  MBC: 256 µg/mL (≈ 1060 µM)
Staphylococcus aureus [17]
  MBC: 1020 µg/mL (≈ 4220 µM)
Staphylococcus aureus [18]
  MBC: 32 µg/mL (≈ 132 µM)
Escherichia coli [19]
  MBC: 16 µg/mL (≈ 66 µM)
Pseudomonas aeruginosa [20]
  MBC: 16 µg/mL (≈ 66 µM)
Staphylococcus aureus [21]
  MBC: 1020 µg/mL (≈ 4220 µM)
Staphylococcus aureus [22]
  MBC: > 1020 µg/mL
Staphylococcus aureus [23]
  MBC: 128 µg/mL (≈ 528 µM)
Staphylococcus aureus [24]
  MBC: > 1020 µg/mL
Staphylococcus aureus [25]
  MIC50: 32 µg/mL (≈ 132 µM)
  MIC90: > 1020 µg/mL
Staphylococcus aureus [26]
  MBC: 16 µg/mL (≈ 66 µM)
Staphylococcus aureus [27]
  MBC: 1020 µg/mL (≈ 4220 µM)
Staphylococcus aureus [28]
  MBC: 32 µg/mL (≈ 132 µM)
Staphylococcus aureus [29]
  MBC: 32 µg/mL (≈ 132 µM)
Candida tropicalis
  MIC: 16 µg/mL (≈ 66 µM)
Pseudomonas aeruginosa [30]
  MIC: 8 µg/mL (≈ 33 µM)

## CCCCCCCCCCCCCC(=O)NCCCN
Candida albicans
  MIC: 32 µg/mL (≈ 112 µM)
Nakaseomyces glabratus
  MIC: 64 µg/mL (≈ 225 µM)
Escherichia coli [1]
  MIC: > 1020 µg/mL
Staphylococcus aureus [5]
  MIC: > 1020 µg/mL
[13]
  MIC: 1020 µg/mL (≈ 3600 µM)
Pseudomonas aeruginosa [31]
  Activity: Active
[32]
  Activity: Active
Candida parapsilosis
  MIC: 16 µg/mL (≈ 56.2 µM)
Candida tropicalis
  MIC: 32 µg/mL (≈ 112 µM)
Pseudomonas aeruginosa [30]
  MIC: 1020 µg/mL (≈ 3600 µM)

## CCCCCCCCCCCC(=O)NCCCN
Candida albicans
  MIC: 256 µg/mL (≈ 998 µM)
Nakaseomyces glabratus
  MIC: 32 µg/mL (≈ 125 µM)
Escherichia coli [1]
  MIC: 128 µg/mL (≈ 499 µM)
Staphylococcus aureus [33]
  Activity: Active
Staphylococcus aureus [5]
  MIC: 256 µg/mL (≈ 998 µM)
[9]
  MBC: 32 µg/mL (≈ 125 µM)
[13]
  MIC: 32 µg/mL (≈ 125 µM)
Candida parapsilosis
  MIC: 64 µg/mL (≈ 250 µM)
Escherichia coli [19]
  MBC: 512 µg/mL (≈ 2000 µM)
Pseudomonas aeruginosa [20]
  MBC: 256 µg/mL (≈ 998 µM)
Candida tropicalis
  MIC: 128 µg/mL (≈ 499 µM)
Pseudomonas aeruginosa [30]
  MIC: 64 µg/mL (≈ 250 µM)

## CCCCCCCC/C=C\CCCCCCCC(=O)NCCCCN
Candida albicans
  MIC: 2 µg/mL (≈ 5.67 µM)
Nakaseomyces glabratus
  MIC: 2 µg/mL (≈ 5.67 µM)
Escherichia coli [1]
  MIC: 8 µg/mL (≈ 22.7 µM)
Staphylococcus aureus [33]
  Activity: Active
Staphylococcus aureus [5]
  MIC: 16 µg/mL (≈ 45.4 µM)
[9]
  MBC: 128 µg/mL (≈ 363 µM)
[13]
  MIC: 4 µg/mL (≈ 11.3 µM)
Pseudomonas aeruginosa [31]
  Activity: Active
Candida parapsilosis
  MIC: 1 µg/mL (≈ 2.84 µM)
Candida tropicalis
  MIC: 4 µg/mL (≈ 11.3 µM)
Escherichia coli [34]
  Activity: Active
Pseudomonas aeruginosa [30]
  MIC: > 1020 µg/mL

## CCCCCCCCCCCCCCCC(=O)NCCCCN
Candida albicans
  MIC: 8 µg/mL (≈ 24.5 µM)
Nakaseomyces glabratus
  MIC: 32 µg/mL (≈ 98 µM)
Escherichia coli [1]
  MIC: 1020 µg/mL (≈ 3140 µM)
Staphylococcus aureus [33]
  Activity: Active
Staphylococcus aureus [5]
  MIC: 512 µg/mL (≈ 1570 µM)
[9]
  MBC: 128 µg/mL (≈ 392 µM)
[13]
  MIC: 16 µg/mL (≈ 49 µM)
Candida parapsilosis
  MIC: 128 µg/mL (≈ 392 µM)
Escherichia coli [19]
  MBC: 1020 µg/mL (≈ 3140 µM)
Candida tropicalis
  MIC: 64 µg/mL (≈ 196 µM)
Pseudomonas aeruginosa [30]
  MIC: > 1020 µg/mL

## CCCCCCCCCCCCCCCC(=O)NCCCN
Candida albicans
  MIC: 64 µg/mL (≈ 205 µM)
Nakaseomyces glabratus
  MIC: 8 µg/mL (≈ 25.6 µM)
Escherichia coli [1]
  MIC: 32 µg/mL (≈ 102 µM)
Staphylococcus aureus [5]
  MIC: > 1020 µg/mL
[9]
  MBC: 64 µg/mL (≈ 205 µM)
[13]
  MIC: 4 µg/mL (≈ 12.8 µM)
Candida parapsilosis
  MIC: 8 µg/mL (≈ 25.6 µM)
Candida tropicalis
  MIC: 16 µg/mL (≈ 51.2 µM)
Escherichia coli [34]
  Activity: Active
Pseudomonas aeruginosa [30]
  MIC: > 1020 µg/mL

## CN[C@H](CC(C)C)C(=O)N[C@H]1C(=O)N[C@@H](CC(N)=O)C(=O)N[C@H]2C(=O)N[C@H]3C(=O)N[C@H](C(=O)N[C@H](C(=O)O)c4cc(O)cc(O)c4-c4cc3ccc4O)[C@H](O)c3ccc(c(Cl)c3)Oc3cc2cc(c3O[C@@H]2O[C@H](CO)[C@@H](O)[C@H](O)[C@H]2O[C@H]2C[C@](C)(N)[C@H](O)[C@H](C)O2)Oc2ccc(cc2Cl)[C@H]1O [VANCOMYCIN]
Staphylococcus aureus [2]
  MBC: 0.5 µg/mL (≈ 0.345 µM)
Staphylococcus aureus [3]
  MBC: 0.5 µg/mL (≈ 0.345 µM)
Staphylococcus aureus [4]
  MBC: 0.5 µg/mL (≈ 0.345 µM)
Staphylococcus aureus [6]
  MBC: 1 µg/mL (≈ 0.69 µM)
Staphylococcus aureus [7]
  MBC: 1 µg/mL (≈ 0.69 µM)
Staphylococcus aureus [8]
  MBC: 1 µg/mL (≈ 0.69 µM)
Staphylococcus aureus [10]
  MBC: 1 µg/mL (≈ 0.69 µM)
Staphylococcus aureus [11]
  MBC: 1 µg/mL (≈ 0.69 µM)
Staphylococcus aureus [12]
  MBC: 1 µg/mL (≈ 0.69 µM)
Staphylococcus aureus [14]
  MBC: 1 µg/mL (≈ 0.69 µM)
Staphylococcus aureus [15]
  MBC: 1 µg/mL (≈ 0.69 µM)
Staphylococcus aureus [16]
  MBC: 0.5 µg/mL (≈ 0.345 µM)
Staphylococcus aureus [17]
  MBC: 1 µg/mL (≈ 0.69 µM)
Staphylococcus aureus [18]
  MBC: 1 µg/mL (≈ 0.69 µM)
Staphylococcus aureus [21]
  MBC: 1 µg/mL (≈ 0.69 µM)
Staphylococcus aureus [22]
  MBC: 1 µg/mL (≈ 0.69 µM)
Staphylococcus aureus [23]
  MBC: 0.5 µg/mL (≈ 0.345 µM)
Staphylococcus aureus [24]
  MBC: 0.5 µg/mL (≈ 0.345 µM)
Staphylococcus aureus [27]
  MBC: 1 µg/mL (≈ 0.69 µM)
Staphylococcus aureus [28]
  MBC: 1 µg/mL (≈ 0.69 µM)
Staphylococcus aureus [29]
  MBC: 1 µg/mL (≈ 0.69 µM)
